Reference: patent publication US20240174723A1, “STAPLED ANTIMICROBIAL PEPTIDES (STAMPS) AND USES THEREOF” (Lytica Therapeutics, Inc., priority 2021, published 2024)
In brackets after ≈: the same amount, converted by molar mass. Positions of bridges follow the written chain, without caps; N, C: chain ends. Non-standard residues stand in square brackets, D forms with d. Residues, ends and D or L forms follow the SMILES beside them. Phe(4-tBu) = CC(C)(C)c1ccc(C[C@H](N)C(=O)O)cc1; S5 = C=CCCC[C@](C)(N)C(=O)O; PEG3 = NCCOCCOCCOCCC(=O)O; Dab = NCC[C@H](N)C(=O)O; Dap = NC[C@H](N)C(=O)O

How the values were obtained:
in vitro [1] = format: cell-based; settings: human
Summary of the method: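 RPTEC or HepG2 cells plated overnight, given fresh media, then serial StAMP dilutions (from 5 mg/mL water stock) or vehicle at 37 °C. Cytotoxicity read as LDH release into media, absorbance 490 nm; renal toxicity after 90 min, liver toxicity after 48 h incubation.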

P. aeruginosa = format: cell-based, Pseudomonas aeruginosa
Summary of the method: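 Broth microdilution adapted from CLSI in MHB or cation-adjusted MHB; log-phase P. aeruginosa at 5×10^5 CFU/ml final with serially diluted stapled peptides. Incubated 20-24 h at 37 °C; MIC is the lowest concentration without visible growth.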

E. coli = format: cell-based, Escherichia coli
Summary of the method: (§1)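 Broth microdilution adapted from CLSI in Mueller-Hinton broth or cation-adjusted MHB. Overnight 37 °C cultures were regrown 3-4 h, then added to serially diluted peptide at a final 5×10^5 CFU/ml. After 20-24 h at 37 °C, MIC was the lowest peptide concentration with no visible growth.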

S. aureus = format: cell-based, Staphylococcus aureus
Summary of the method: as §1

A. baumannii = format: cell-based, Acinetobacter baumannii
Summary of the method: as §1

K. pneumoniae = format: cell-based, Klebsiella pneumoniae
Summary of the method: as §1

in vitro [2] = format: cell-based; settings: human, Inhibitory Concentration at 50% Cytotoxicity (IC50) Human Liver Cells (HepG2)
Summary of the method: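 HepG2 cells in EMEM with 10% FBS, allowed 4 h to attach, then exposed to serial dilutions of StAMPs (from a 5 mg/mL water stock) or vehicle. After 48 h at 37 °C, viability read by CellTiter-Glo luminescence.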

SMILES | IC50 at 90 min (in vitro [1]) [µg/mL] | Minimum Inhibitory Concentration (MIC) P. aeruginosa (P. aeruginosa) [µg/mL] | Minimum Inhibitory Concentration (MIC) E. coli (E. coli) [µg/mL] | Minimum Inhibitory Concentration (MIC) S. aureus (S. aureus) [µg/mL] | Minimum Inhibitory Concentration (MIC) A. baumannii (A. baumannii) [µg/mL] | Minimum Inhibitory Concentration (MIC) K. pneumoniae (K. pneumoniae) [µg/mL] | IC50 at 48 hours (in vitro [2]) [µg/mL]
CC(C)[C@@H]1NC(=O)[C@@](C)(NC(=O)[C@H](C)NC(=O)[C@H](CCCCN)NC(=O)CNC(=O)[C@H](Cc2ccccc2)NC(=O)[C@H](CCCCN)NC(=O)[C@H](CCCCN)NC(=O)[C@H](CCCCN)NC(=O)[C@H](CCCCN)NC(=O)[C@H](CCCCN)NC(=O)[C@]2(C)CCCC=CCCC[C@](C)(NC(=O)CN)C(=O)NCC(=O)N[C@@H](CCCCN)C(=O)N[C@@H](Cc3ccccc3)C(=O)N2)CCCC=CCCC[C@@](C)(C(=O)N[C@@H](C)C(=O)N[C@@H](CCCCN)C(=O)N[C@@H](CCCCN)C(=O)NCC(=O)NCC(=O)N[C@@H](CCC(=O)O)C(N)=O)NC(=O)[C@H](CCC(=O)O)NC(=O)CNC1=O [compound 26] (H-G[S5]GKF[S5]KKKKKFGKA[S5]VGE[S5]AKKGGE-NH2; staple 2-6, 16-20) | 366 (≈ 130 µM) | 4 | 4 | >64 | 4 | 32 | 354 (≈ 126 µM)
CC(C)[C@@H]1NC(=O)[C@H](C(C)C)NC(=O)[C@@](C)(NC(=O)[C@H](C)NC(=O)[C@H](CCCCN)NC(=O)CNC(=O)[C@H](Cc2ccc(C(C)(C)C)cc2)NC(=O)[C@H](CCCCN)NC(=O)[C@H](CCCCN)NC(=O)[C@H](CCCCN)NC(=O)[C@H](CCCCN)NC(=O)[C@H](Cc2c[nH]cn2)NC(=O)[C@]2(C)CCCC=CCCC[C@](C)(NC(=O)CN)C(=O)NCC(=O)N[C@@H](CCCCN)C(=O)N[C@@H](Cc3ccc(C(C)(C)C)cc3)C(=O)N2)CCCC=CCCC[C@@](C)(C(=O)N[C@@H](C)C(=O)N[C@@H](CCCCN)C(=O)N[C@@H](CCCCN)C(N)=O)NC(=O)[C@H](CCC(=O)O)NC1=O [compound 31] (H-G[S5]GK[Phe(4-tBu)][S5]HKKKK[Phe(4-tBu)]GKA[S5]VVE[S5]AKK-NH2; staple 2-6, 16-20) | 9 (≈ 3.3 µM) | 8 | 4 | 16 | 4 | 8 | 101 (≈ 37 µM)
CC(C)[C@@H]1NC(=O)[C@H](C(C)C)NC(=O)[C@@](C)(NC(=O)[C@H](C)NC(=O)[C@H](CCCCN)NC(=O)CNC(=O)[C@H](Cc2ccccc2)NC(=O)[C@H](CCCCN)NC(=O)[C@H](CCCCN)NC(=O)[C@H](CCCCN)NC(=O)[C@H](CCCCN)NC(=O)[C@H](CCCCN)NC(=O)[C@]2(C)CCCC=CCCC[C@](C)(NC(=O)CN)C(=O)NCC(=O)N[C@@H](CCCCN)C(=O)N[C@@H](Cc3ccccc3)C(=O)N2)CCCC=CCCC[C@@](C)(C(=O)N[C@@H](C)C(=O)N[C@@H](CCCCN)C(=O)N[C@@H](CCCCN)C(=O)NCC(=O)NCC(=O)N[C@@H](CCC(=O)O)C(N)=O)NC(=O)[C@H](CCC(=O)O)NC1=O [compound 32] (H-G[S5]GKF[S5]KKKKKFGKA[S5]VVE[S5]AKKGGE-NH2; staple 2-6, 16-20) | ~200 (≈ 70.2 µM) | 4 | 4 | >64 | 4 | 8 | > 200
CC(C)[C@@H]1NC(=O)[C@@](C)(NC(=O)[C@H](C)NC(=O)[C@H](CCCCN)NC(=O)CNC(=O)[C@H](Cc2ccccc2)NC(=O)[C@H](CCCCN)NC(=O)[C@H](CCCCN)NC(=O)[C@H](CCCCN)NC(=O)[C@H](CCCCN)NC(=O)[C@H](CCCCN)NC(=O)[C@]2(C)CCCC=CCCC[C@](C)(NC(=O)CN)C(=O)NCC(=O)N[C@@H](CCCCN)C(=O)N[C@@H](Cc3ccccc3)C(=O)N2)CCCC=CCCC[C@@](C)(C(=O)N[C@@H](C)C(=O)N[C@@H](CCCCN)C(=O)N[C@@H](CCCCN)C(=O)NCCOCCOCCOCCC(N)=O)NC(=O)[C@H](CCC(=O)O)NC(=O)CNC1=O [compound 73] (H-G[S5]GKF[S5]KKKKKFGKA[S5]VGE[S5]AKK[PEG3]-NH2; staple 2-6, 16-20) | 671 (≈ 242 µM) | 4 | 2 | >64 | 2 | 4 | 407 (≈ 147 µM)
CC(C)[C@@H]1NC(=O)[C@@](C)(NC(=O)[C@H](C)NC(=O)[C@H](CCCCN)NC(=O)CNC(=O)[C@H](Cc2ccccc2)NC(=O)[C@H](CCCCN)NC(=O)[C@H](CCCCN)NC(=O)[C@H](CCCCN)NC(=O)[C@H](CCCCN)NC(=O)[C@H](Cc2c[nH]cn2)NC(=O)[C@]2(C)CCCC=CCCC[C@](C)(NC(=O)CN)C(=O)NCC(=O)N[C@@H](CCCCN)C(=O)N[C@@H](Cc3ccccc3)C(=O)N2)CCCC=CCCC[C@@](C)(C(=O)N[C@@H](C)C(=O)N[C@@H](CCCCN)C(=O)N[C@@H](CCCCN)C(N)=O)NC(=O)[C@H](CCC(=O)O)NC(=O)[C@H](Cc2ccccc2)NC1=O [compound 22] (H-G[S5]GKF[S5]HKKKKFGKA[S5]VFE[S5]AKK-NH2; staple 2-6, 16-20) | 202 (≈ 75.8 µM) | 4 | 2 | >64 | 3 | 4 | > 200
CC(C)[C@@H]1NC(=O)[C@@](C)(NC(=O)[C@H](C)NC(=O)[C@H](CCCCN)NC(=O)CNC(=O)[C@H](Cc2ccccc2)NC(=O)[C@H](CCCCN)NC(=O)[C@H](CCCCN)NC(=O)[C@H](CN)NC(=O)[C@H](CCCCN)NC(=O)[C@H](CCCCN)NC(=O)[C@]2(C)CCCC=CCCC[C@](C)(NC(=O)CN)C(=O)NCC(=O)N[C@@H](CCCCN)C(=O)N[C@@H](Cc3ccccc3)C(=O)N2)CCCC=CCCC[C@@](C)(C(=O)N[C@@H](C)C(=O)N[C@@H](CCCCN)C(=O)N[C@@H](CCCCN)C(N)=O)NC(=O)[C@H](CCC(=O)O)NC(=O)CNC1=O [compound 40] (H-G[S5]GKF[S5]KK[Dap]KKFGKA[S5]VGE[S5]AKK-NH2; staple 2-6, 16-20) | 200 (≈ 79.3 µM) | 4 | 2 | >64 | 2 | 8 | 203 (≈ 80.5 µM)
CC(C)[C@@H]1NC(=O)[C@@](C)(NC(=O)[C@H](C)NC(=O)[C@H](CCN)NC(=O)CNC(=O)[C@H](Cc2ccccc2)NC(=O)[C@H](CCN)NC(=O)[C@H](CCN)NC(=O)[C@H](CCN)NC(=O)[C@H](CCN)NC(=O)[C@H](CCN)NC(=O)[C@]2(C)CCCC=CCCC[C@](C)(NC(=O)CN)C(=O)NCC(=O)N[C@@H](CCN)C(=O)N[C@@H](Cc3ccccc3)C(=O)N2)CCCC=CCCC[C@@](C)(C(=O)N[C@@H](C)C(=O)N[C@@H](CCN)C(=O)N[C@@H](CCN)C(N)=O)NC(=O)[C@H](CCC(=O)O)NC(=O)CNC1=O [compound 23] (H-G[S5]G[Dab]F[S5][Dab][Dab][Dab][Dab][Dab]FG[Dab]A[S5]VGE[S5]A[Dab][Dab]-NH2; staple 2-6, 16-20) | 84 (≈ 36.3 µM) | 2 | 8 | 64 | 8 | 32 | 39 (≈ 16.9 µM)
CC(C)[C@@H]1NC(=O)[C@@](C)(NC(=O)[C@H](C)NC(=O)[C@H](CCCCN)NC(=O)CNC(=O)[C@H](Cc2ccccc2)NC(=O)[C@H](CCCCN)NC(=O)[C@H](CCCCN)NC(=O)[C@H](CCCCN)NC(=O)[C@H](CCCCN)NC(=O)[C@H](CCCCN)NC(=O)[C@]2(C)CCCC=CCCC[C@](C)(NC(=O)CN)C(=O)NCC(=O)N[C@@H](CCCCN)C(=O)N[C@@H](Cc3ccccc3)C(=O)N2)CCCC=CCCC[C@@](C)(C(=O)N[C@@H](C)C(=O)N[C@@H](CCCCN)C(=O)N[C@@H](CCCCN)C(=O)NCC(=O)NCC(=O)N[C@@H](CCC(N)=O)C(N)=O)NC(=O)[C@H](CCC(=O)O)NC(=O)CNC1=O [compound 77] (H-G[S5]GKF[S5]KKKKKFGKA[S5]VGE[S5]AKKGGQ-NH2; staple 2-6, 16-20) | > 200 | 4 | 4 | >64 | 3 | 16 | > 200
